# Results published in patent US20140296265A1, “Method of Treating Lymphoma Using Pyridopyrimidinone Inhibitors of PI3K/mTOR” (Sanofi, priority 2011, published 2014).
# Experiments:
# [1] = Phase 1 dose-escalation study: safety and tolerability (MTD, adverse events); assay type: in vivo
# Procedure: (§1) A Phase I, non-randomized, open-label, dose-escalation study was conducted for Compound A using two dosing schedules to evaluate the safety, PK, and pharmacodynamics of Compound A in subjects with solid tumors or lymphoma.
# Patients were treated with a conventional ‘3+3’ dose-escalation design with cohorts of three to six subjects for up to nine different dose levels on each dosing schedule.
# (§2) Patients received 5, 10 or 50 mg of Compound A either twice daily (bid) or daily (qd) for 28-day cycles. Pharmacokinetics and pharmacodynamic analyses were performed, and tumor response was assessed every 8 weeks.
# [2] = Phase 1 dose-escalation study: plasma pharmacokinetics; assay type: in vivo, human
# Procedure: as §1, §2
# [3] = test system: PI3K and ERK pathway signaling; experiment: Phase 1 dose-escalation study: pharmacodynamics in paired tumor biopsies; assay type: in vivo, human
# Procedure: as §1, §2
# solid tumors or lymphoma = experiment: Phase 1 dose-escalation study: tumor response; assay type: in vivo, human
# Procedure: as §1, §2
# [4] = Phase 1 dose-expansion lymphoma cohort: safety and tolerability; assay type: in vivo, human
# From the text: The following phase 1 study was designed to evaluate the safety and pharmacokinetics of Compound A administered as a continuous daily dosing regimen in an expansion cohort of subjects with relapsed or refractory lymphoma.
# (§3) This was a Phase 1, open-label, non-randomized trial of Compound A given orally as a single agent in subjects with lymphoma. The maximum tolerated dose expansion cohort planned enrollment was at least 15 subjects.
# The primary objective was to determine the safety and tolerability of Compound A administered orally, twice daily, as a continuous daily dosing regimen to subjects with relapsed or refractory lymphoma.
# (§4) The key eligibility include the following: • Histologically confirmed diagnosis of relapsed or refractory lymphoma • Measureable disease • Adequate bone marrow function defined as: • ANC≧1000/mm3 (chronic lymphocytic leukemia with ANC≧500/mm3) • Platelets≧30,000/mm3 • Hemoglobin≧8 g/dL • Availability of archival or fresh tumor tissue • No prior therapy with a selective PI3K inhibitor • Written informed consent.
# [5] = human, in vivo, 50 mg, 27 day
# From the text: The secondary objectives were to determine (a) the plasma pharmacokinetics of Compound A continuous daily dosing; and (b) the pharmacodynamic effects of Compound A on tumor tissue.
# [6] = test system: relapsed or refractory lymphoma; experiment: Phase 1 dose-expansion lymphoma cohort: best response; assay type: in vivo, human
# From the text: as §3
# The exploratory objectives were to determine (a) the pharmacodynamic effects of Compound A in subjects with lymphoma; (b) the preliminary efficacy data (response rate) for Compound A; and (c) the long-term safety and tolerability of Compound A after repeated twice daily administration.
# as §4
# PI3K and MAPK pathways = experiment: Pharmacodynamic analyses in paired tumor tissue: phospho-markers; assay type: in vivo, human; conditions: for % Decrease p4EBP1T70 / % Decrease pAKTS473 / % Decrease pAKTT308 / % Decrease pERKT202/Y204: Mantle Cell Lymphoma, 50 mg BID, PTEN-def
# Procedure: (§5) The secondary objectives were to determine (a) the plasma pharmacokinetics of Compound A continuous daily dosing; and (b) the pharmacodynamic effects of Compound A on tumor tissue. […] This finding is also reflected in FIG. 3, which depicts PTEN IHC and Ki67 IF staining of lymphoma tumor cells treated with Compound A. PTEN expression was evaluated by immunohistochemistry in formalin fixed, paraffin-embedded tissue sections FFPE (5 micron) with anti-PTEN antibody (NCL-PTEN, clone 28H6, diluted 1/300, Novocastra Laboratories Ltd) utilizing standardized procedures. Cryopreserved tumor biopsy samples were serially sectioned at 5 microns and converted in FFPE sections.
# [7] = test system: mantle cell lymphoma tumor; experiment: Pharmacodynamic analyses in paired tumor tissue: Ki67 and TUNEL; assay type: in vivo, human
# Procedure: as §5
# [8] = paired biopsies of diverse solid tumors, five patients, 50 mg bid
# [9] = lymphoma cohort, sixteen subjects
# [10] = Diffuse Large B-cell Lymphoma, n 2, twice daily continuous dosing
# [11] = Follicular Lymphoma, n 4, twice daily continuous dosing
# [12] = Mantle Cell Lymphoma, n 5, twice daily continuous dosing
# [13] = Mantle Cell Lymphoma, 50 mg BID, D 56 post dose, PTEN-def
structure (smiles),measurement,setting,value
"CCn1c(=O)c(-c2ccn[nH]2)cc2c(C)nc(N)nc21 [Compound A, 2-amino-8-ethyl-4-methyl-6-(1H-pyrazol-5-yl)pyrido[2,3-d]pyrimidin-7(8H)-one]",maximum tolerated dose (MTD),[1]; bid schedule,50 mg
same,most common related adverse events,[1]; in vivo,"nausea, diarrhea, anorexia, elevated liver enzymes, skin and subcutaneous disorders, and vomiting"
same,tolerability,[1]; in vivo,generally well-tolerated
same,maximum tolerated dose (MTD),[1]; qd schedule,90 mg
same,exposure versus dose,[2]; bid and qd schedules,increase with increasing dose
same,half-life,"[2]; human, plasma, oral, at steady-state, read-out: Mean t1/2,z",3 to 9 h
same,Tmax,"[2]; human, plasma, oral, post-dose, read-out: Median tmax",1 to 3 h
same,post-dose reduction in p4EBP1,[3]; [8],62-80%
same,post-dose reduction in pAKT-T308,[3]; [8],57-71%
same,post-dose reduction in pERK,[3]; [8],53-80%
same,pharmacodynamic modulation of PI3K and ERK pathway signaling,"[3]; tumors and surrogate tissues, repeat-dose administration",Robust pharmacodynamic modulation
same,patients on study for ≧16 weeks,solid tumors or lymphoma; in vivo,Eleven
same,patients on treatment for ≧24 weeks,solid tumors or lymphoma; in vivo,seven
same,tumor response,"solid tumors or lymphoma; one patient with mantle cell lymphoma, treated for 12 cycles",one partial response in MCL
same,activity in solid tumor patients,solid tumors or lymphoma; solid tumor patients,prolonged disease stabilization
same,"ALT increased, All Adverse Events, All Grades","[4]; human, in vivo",3 (19) n (%)
same,"ALT increased, All Adverse Events, Grade ≧ 3","[4]; human, in vivo",2 (13) n (%)
same,"ALT increased, Related Adverse Events, All Grades","[4]; human, in vivo",3 (19) n (%)
same,"ALT increased, Related Adverse Events, Grade ≧ 3","[4]; human, in vivo",2 (13) n (%)
same,"AST increased, All Adverse Events, All Grades","[4]; human, in vivo",4 (25) n (%)
same,"AST increased, All Adverse Events, Grade ≧ 3","[4]; human, in vivo",0 n (%)
same,"AST increased, Related Adverse Events, All Grades","[4]; human, in vivo",3 (19) n (%)
same,"AST increased, Related Adverse Events, Grade ≧ 3","[4]; human, in vivo",0 n (%)
same,"Anemia, All Adverse Events, All Grades","[4]; human, in vivo",3 (19) n (%)
same,"Anemia, All Adverse Events, Grade ≧ 3","[4]; human, in vivo",2 (13) n (%)
same,"Anemia, Related Adverse Events, All Grades","[4]; human, in vivo",1 (6) n (%)
same,"Anemia, Related Adverse Events, Grade ≧ 3","[4]; human, in vivo",0 n (%)
same,"Asthenia, All Adverse Events, All Grades","[4]; human, in vivo",3 (19) n (%)
same,"Asthenia, All Adverse Events, Grade ≧ 3","[4]; human, in vivo",2 (13) n (%)
same,"Asthenia, Related Adverse Events, All Grades","[4]; human, in vivo",0 n (%)
same,"Asthenia, Related Adverse Events, Grade ≧ 3","[4]; human, in vivo",0 n (%)
same,"Creatinine increased, All Adverse Events, All Grades","[4]; human, in vivo",3 (19) n (%)
same,"Creatinine increased, All Adverse Events, Grade ≧ 3","[4]; human, in vivo",0 n (%)
same,"Creatinine increased, Related Adverse Events, All Grades","[4]; human, in vivo",0 n (%)
same,"Creatinine increased, Related Adverse Events, Grade ≧ 3","[4]; human, in vivo",0 n (%)
same,"Diarrhea, All Adverse Events, All Grades","[4]; human, in vivo",6 (38) n (%)
same,"Diarrhea, All Adverse Events, Grade ≧ 3","[4]; human, in vivo",0 n (%)
same,"Diarrhea, Related Adverse Events, All Grades","[4]; human, in vivo",3 (19) n (%)
same,"Diarrhea, Related Adverse Events, Grade ≧ 3","[4]; human, in vivo",0 n (%)
same,Discontinuations of treatment: Adverse event,"[4]; human, in vivo",2 (13) n (%)
same,Dose modification due to treatment-related toxicities: AST/ALT increase,"[4]; human, in vivo",2 (40) n (%)
same,Dose modification due to treatment-related toxicities: Amylase increase,"[4]; human, in vivo",1 (20) n (%)
same,Dose modification due to treatment-related toxicities: Nausea,"[4]; human, in vivo",2 (40) n (%)
same,"Fatigue, All Adverse Events, All Grades","[4]; human, in vivo",3 (19) n (%)
same,"Fatigue, All Adverse Events, Grade ≧ 3","[4]; human, in vivo",1 (6) n (%)
same,"Fatigue, Related Adverse Events, All Grades","[4]; human, in vivo",1 (6) n (%)
same,"Fatigue, Related Adverse Events, Grade ≧ 3","[4]; human, in vivo",0 n (%)
same,"Hyperglycemia, All Adverse Events, All Grades","[4]; human, in vivo",3 (19) n (%)
same,"Hyperglycemia, All Adverse Events, Grade ≧ 3","[4]; human, in vivo",0 n (%)
same,"Hyperglycemia, Related Adverse Events, All Grades","[4]; human, in vivo",1 (6) n (%)
same,"Hyperglycemia, Related Adverse Events, Grade ≧ 3","[4]; human, in vivo",0 n (%)
same,"Nausea, All Adverse Events, All Grades","[4]; human, in vivo",5 (31) n (%)
same,"Nausea, All Adverse Events, Grade ≧ 3","[4]; human, in vivo",0 n (%)
same,"Nausea, Related Adverse Events, All Grades","[4]; human, in vivo",5 (31) n (%)
same,"Nausea, Related Adverse Events, Grade ≧ 3","[4]; human, in vivo",0 n (%)
same,Patients requiring dose modification due to toxicity,"[4]; human, in vivo",12 (75) n (%)
same,Patients requiring dose modification due to treatment-related toxicities,"[4]; human, in vivo",5 (31) n (%)
same,"Pyrexia, All Adverse Events, All Grades","[4]; human, in vivo",4 (25) n (%)
same,"Pyrexia, All Adverse Events, Grade ≧ 3","[4]; human, in vivo",0 n (%)
same,"Pyrexia, Related Adverse Events, All Grades","[4]; human, in vivo",0 n (%)
same,"Pyrexia, Related Adverse Events, Grade ≧ 3","[4]; human, in vivo",0 n (%)
same,Discontinuations of treatment,[4]; in vivo,14 (88) n (%)
same,tolerability,[4]; in vivo,well tolerated
same,Discontinuations of treatment: Death (unrelated to study drug),[4]; [9],1 (6) n (%)
same,Discontinuations of treatment: Progressive disease,[4]; [9],8 (50) n (%)
same,accumulation (AUCtau) on day 27,[5],approximately 3 fold
same,Best Response: subjects with Partial Response,[6]; [10],1
same,Best Response: subjects with Progressive Disease,[6]; [10],1
same,Best Response: subjects with Progressive Disease,[6]; [11],1
same,Best Response: subjects with Stable Disease,[6]; [11],3
same,Best Response: subjects with Stable Disease,"[6]; Hodgkin's Lymphoma, n 1, twice daily continuous dosing",1
same,Best Response: subjects with Partial Response,[6]; [12],1^b
same,Best Response: subjects with Progressive Disease,[6]; [12],1
same,Best Response: subjects with Stable Disease,[6]; [12],3 c
same,Best Response: subjects with Partial Response,"[6]; Transformed Lymphoma, n 1, twice daily continuous dosing",1 days
same,% Decrease p4EBP1T70,PI3K and MAPK pathways; D 27 post dose,60%
same,% Decrease pAKTS473,PI3K and MAPK pathways; D 27 post dose,70%
same,% Decrease pAKTT308,PI3K and MAPK pathways; D 27 post dose,65%
same,% Decrease pERKT202/Y204,PI3K and MAPK pathways; D 27 post dose,15%
same,% Decrease p4EBP1T70,PI3K and MAPK pathways; D 56 post dose,60%
same,% Decrease pAKTS473,PI3K and MAPK pathways; D 56 post dose,73%
same,% Decrease pAKTT308,PI3K and MAPK pathways; D 56 post dose,88%
same,% Decrease pERKT202/Y204,PI3K and MAPK pathways; D 56 post dose,74%
same,inhibition of the PI3K and MAPK pathways,PI3K and MAPK pathways; mantle cell lymphoma tumor,robust inhibition of the PI3K and MAPK pathways
same,% Decrease Ki67,"[7]; Mantle Cell Lymphoma, 50 mg BID, D 27 post dose, PTEN-def",98%
same,% Decrease Ki67,[7]; [13],99%
same,TUNEL (fold increase),[7]; [13],1.5 fold
same,inhibition of Ki67 proliferation,[7]; mantle cell lymphoma tumor,near complete inhibition of Ki67 proliferation
